The results in this text go back to publication PMC2680961, “Homologous desensitization of signalling by the alpha (α) isoform of the human thromboxane A2 receptor: A specific role for nitric oxide signalling” (Biochimica et Biophysica Acta, 2007).

The structures appear in SMILES notation.

The test deals with T1, TPα^S329A (Homo sapiens, UniProt P21731, S329A).
T1 construct: expressed in transfected cells
T1 sequence (P21731 1-343 S329A): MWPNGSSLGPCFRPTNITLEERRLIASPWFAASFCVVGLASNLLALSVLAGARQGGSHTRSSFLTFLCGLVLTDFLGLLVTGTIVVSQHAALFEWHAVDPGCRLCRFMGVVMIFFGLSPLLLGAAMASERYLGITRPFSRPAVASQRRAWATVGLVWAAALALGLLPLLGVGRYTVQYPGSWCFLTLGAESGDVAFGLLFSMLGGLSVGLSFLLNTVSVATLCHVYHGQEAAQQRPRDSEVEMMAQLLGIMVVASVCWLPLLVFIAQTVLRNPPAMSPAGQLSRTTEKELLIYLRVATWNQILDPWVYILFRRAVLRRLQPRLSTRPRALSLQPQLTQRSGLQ
Description: Intracellular calcium mobilization, HEK.TPα^S329A cells. The test is classed as cell-based. How it is done:
Measurement of intracellular calcium mobilization ([Ca^2+]i) in FURA2/AM preloaded HEK 293 cell lines (2 × 10^6 cells/dish), each transiently co-transfected with pADVA (10 μg), and pCMV:Gαq (25 μg), was carried out as previously described. To investigate the effect of GRK2/βARK1 on TP-mediated [Ca^2+]i mobilization, HEK.TPα or HEK.TPβ cells (2 × 10^6 cells/dish) were co-transfected with pADVA (10 μg), pCMV:Gαq (25 μg) along with pRK5:βARK1^495–689 (25 μg), encoding a dominant negative form of GRK2/βARK1[39]. […] For each measurement of [Ca^2+]i mobilization, aliquots of cells were diluted to 0.825 × 10^6 cells/ml in HBSSHB, 1 mM CaCl2 and FURA2 fluorescence was recorded (2 ml aliquots of cells) at 37^ °C with gentle stirring with a Perkin Elmer-Cetus LS50-B spectrofluorometer at excitation wavelengths of 340 nm and 380 nm and emission wavelength of 510 nm, respectively.
Cells were stimulated with the TP agonist U46619 (1 μM) and changes in [Ca^2+]i mobilization were monitored as a function of time. […]
The vehicle had no effect on U46619-mediated [Ca^2+]i mobilization. Calibration of the signal was performed in each sample by adding 0.2% Triton X-100 to obtain the maximal fluorescence ratio (Rmax) and then 1 mM EGTA to obtain the minimal fluorescence ratio (Rmin). […]

For the molecule `CCCCC[C@H](O)/C=C/[C@@H]1[C@@H](C/C=C\CCCC(=O)O)[C@H]2CO[C@@H]1C2` [U46619], the “Δ[Ca2+]i, U46619-induced” value is, setting by setting: (primary 1 μM U46619 4 min) 228 ± 7.7 nM; (secondary 1 μM U46619 at 15 min) 0 nM.
